Test results published in US12037350B2, “Compositions and methods for the prevention and/or treatment of mitochondrial disease, including Friedreich's ataxia” (Stealth BioTherapeutics Inc., priority 2020, dated 2024).
“Also recorded” adds a separate entry of the source.

What was measured:
[1] = system: GM03665 cells (fibroblasts from a subject with Friedreich's ataxia); assay: RSL-3 Toxicity Assay (RSL-3 Assay); format: cell-based, human
Excerpt: Example 14: RSL-3 Toxicity Assay (RSL-3 Assay)
This assay has been adapted from: Hinman, A., Holst, C. R., Latham, J. C., Bruegger, J. J., Ulas, G., McCusker, K. P., Amagata, A., Davis, D., Hoff, K. G., Kahn-Kirby, A. H., Kim, V., Kosaka, Y., Lee, E., Malone, S. A., Mei, J. J., Richards, S. J., Rivera, V., Miller, G., Trimmer, J. K., Shrader, W. D., “Vitamin E hydroquinone is an endogenous regulator of ferroptosis via redox control of 15-lipoxygenase”, (2018) PLoS ONE 13(8): e0201369.
In brief, GM03665 cells (Coriell Institute) were seeded in 96-well plates (Sarstedt) in DMEM cell culture media containing 10% Fetal Bovine serum and 1% Penicillin-Streptomycin (Pen-Strep) antibiotic mix at the amount of 2×10^4/mL (100 μL or 2×10^3 cells per well). Cells were left to rest overnight at 37° C. in a humidified atmosphere with 5% CO2 to allow attachment of the cells to the culture plate. Test compounds were prepared as DMSO stocks (10 mM) and were serially diluted in cell culture media to obtain 2× working solutions. Cell media was discarded and replaced by 50 μL of test compound solutions or cell media with vehicle for control wells. Within 15 minutes, 2× working solution (4 μM) of 1S,3R-RSL-3 (CAS #1219810-16-8, Sigma-Aldrich) (diluted from 5 mM DMSO stock in cell culture media) was added. Final reaction volume was 100 μL and final DMSO concentration in reaction was kept below 0.2% (v/v) and equal in all wells. Final RSL-3 concentration was 2 μM and test compound final concentrations in reaction were up to 1000 nM. After 24 hours of incubation cell viability was assessed by MTT test. MTT (Sigma-Aldrich) solution 1 mg/mL in IX PBS (pH=7.4) was prepared 1 hour before the assay and filtered through Filtropur S 0.2 filters (Sarstedt). Cell media with test compounds was discarded and 100 μL of MTT solution was added to cells. The plates were incubated for 2 hours at +37° C. Thereafter, the MTT solution was removed and 100 μL of isopropanol was added to dissolve sediment. Absorption at 570 and 650 nm was measured using Hidex Sense microplate reader.
Compounds A and B and idebenone were not examined in this assay. The data presented in Table 1 indicates omaveloxolone was not active in this assay but that vatiquinone was active.
Discussion—Both BSO and RSL-3 are frequently utilized to induce the regulated cell death pathway known as ferroptosis. Ferroptosis is thought to require the joint activity of iron catalyzed oxidative stress and lipid peroxidation and has been described in cell and animal models of multiple neurodegenerative diseases, including Friedreich's Ataxia, Huntington Disease, Parkinson Disease and Alzheimer's Disease. […] Of note, the results for Compounds C-I and K were favorable with respect to inhibition of ferroptotic cell death when either BSO or RSL3 were used as initiating stimulus, differentiating these compounds from omaveloxolone and idebenone.

[2] = system: HepG2 cells; assay: Rotenone Oxygraph Assay (high-resolution respirometry of intact HepG2 cells); format: cell-based, human
Description: Example 15: Rotenone Oxygraph Assay (High-Resolution Respirometry of Intact HepG2 Cells)
The Oxygraph-2k (O2k, OROBOROS INSTRUMENTS, Austria) was used for measurements of respiration of intact cells. The respirometry was performed in Dulbecco's Modified Eagle Medium (DMEM) high glucose without supplements. All experiments were performed at 37° C.
HepG2 cells (ATCC collection code HB-8065™) were cultured in 10 cm^2 culture dishes in DMEM high glucose medium supplemented with 10% fetal bovine serum (FBS) and 100 units/mL penicillin and 100 μg/mL streptomycin until approximately 90% confluence was reached. Immediately prior to performing the respirometric assay, the cells were washed with media without FBS, trypsinized and resuspended in DMEM high glucose without FBS.
The final concentration of intact cells in the O2k-chamber was 0.5-10^6/mL. After stabilization of respiration, the Complex I inhibitor, rotenone, at 1 μM final concentration was added to inhibit electron flux via Complex I. Then, compound to be tested was added at 10 μM final concentration, and the change in respiration rate of intact cells was monitored. […]

[3] = system: HepG2 human hepatocarcinoma cells; assay: Rotenone ATP Assay (Complex I by-pass assay); format: cell-based
Description: Example 13: Rotenone ATP Assay (a Complex I by-Pass Assay)
This assay has been adapted from Haefeli R H, Erb M, Gemperli A C, Robay D, Courdier Fruh I, et al. (2011) NQO1-Dependent Redox Cycling of Idebenone: Effects on Cellular Redox Potential and Energy Levels. PLoS ONE 6(3): e17963. HepG2 human hepatocarcinoma cells are co-incubated with the electron transport chain complex I toxin rotenone +/− compounds of interest and the corresponding effect on ATP synthesis is measured with a bioluminescent substrate.
The stock solutions of the test articles (See Table 1, below for a list of the test articles examined using this assay) were prepared in dimethyl sulfoxide (DMSO at 10 mM). Working stock solutions were prepared on the day of the experiment in glucose free, serum free Dulbecco's modified Eagles medium (DMEM) supplemented with 50 micromolar rotenone.
In brief, HepG2 cells were plated at 25,000 cells per well in low glucose (1 gram/Liter) DMEM medium+10% fetal calf serum and incubated for 24 hours. The following day, the media was decanted and subsequently replaced with glucose free/serum free DMEM which has been supplemented with 50 micromolar rotenone and compound of interest. Serial dilutions of compound were prepared in 3× dilutions beginning at 25 micromolar. The cells were incubated for 60 minutes in a humidified tissue culture incubator. Following incubation, ATP levels were quantified via bioluminescent assay (Promega […] Glo Assay kit) and readings were captured on a standard microplate reader.
ATP bioluminescence is plotted versus the log of compound of interest and data are used to generate EC50 values. Curve fitting is performed using a sigmoidal dose response curve fit function (GraphPad Prism software).
EC50 values were derived from seven-point dose response curves performed on n=3 technical replicates per dose. Robustness of curve fit was assessed as a quality control measure, with an R squared value of at least 0.80 being required for a successful curve fit. Compounds of interest showing an increase in ATP bioluminescence relative to vehicle control were verified in an independent biological replicate of n=3 technical replicates per dose.
This assay is a direct measure of the ability of compounds of interest to restore ATP production under conditions of inhibition of Complex I of the mitochondrial electron transport chain. As the majority of ATP produced via the electron transport chain is thought to derive from Complex I activity, significant impairment in Complex I function has dire biological consequences. Of note, Complex I mutations are thought to drive pathophysiology in multiple mitochondrial diseases, including Leigh syndrome and Leber's Hereditary Optic Neuropathy (LHON), while diminished Complex I activity and the resultant attenuation of ATP production has been shown in neurodegenerative diseases, including Friedreich's Ataxia, Parkinson's Disease and Huntington's Disease. In brief, most compounds were tested in the Rotenone Oxygraph Assay instead of this assay but only Idebenone was active amongst Omaveloxolone, Idebenone and Vatiquinone.

[4] = system: frataxin deficient fibroblasts (GM03665) from Friedreich's ataxia patient; assay: Frataxin Deficient Fibroblast Viability Assay (BSO Assay); format: cell-based
Description: Example 12: Frataxin Deficient Fibroblast Viability Assay (the “BSO Assay”)
This Example was used to evaluate the various new compositions for their potential efficacy in the treatment of Friedreich's Ataxia (FA or FRDA)—substantially as described in the above cited Reference (Matthias et al.).
The stock solutions of the test articles (and control compounds) were prepared in dimethyl sulfoxide (DMSO at 10 mM), Working stock solutions (2 times concentrated) were prepared on the day of the experiment in respective cell culture medium to be used for assay (detailed medium description below). A listing of compounds used as test articles in this Example 12 are found in Table 1, below.
A patient derived frataxin deficient fibroblast cell line was obtained from Coriell Institute. More specifically, the following cell lines/DNA samples were obtained from the NIGMS Human Genetic Cell Repository at the Coriell Institute for Medical Research: GM03665. To evaluate importance of various growth conditions on cell susceptibility to BSO toxicity cells were grown on:
MEM (Sigma-Aldrich) 15% Fetal Bovine Serum (FBS) without growth factors;
MEM (Sigma-Aldrich) 15% FBS with growth factors (Catalogue number 100-18B, Recombinant Human FGF-basic (154 a.a.) and catalogue number AF-100-15, Animal-Free Recombinant Human EGF from Peprotech);
MEM199/MEM EBS (Bioconcept Ltd.) 10% FBS, insulin 10 μg/ml, L-glutamine 2 mM with growth factors (Catalogue number 100-18B, Recombinant Human FGF-basic (154 a.a.) and catalogue number AF-100-15, Animal-Free Recombinant Human EGF from Peprotech).
To conduct an experiment, fibroblast cells (from all growth conditions) were seeded (100 μL (cells 3×10^3/well) on 96-well plates in MEM199/MEM EBS medium 10% FBS, insulin 10 μg/mL, L-glutamine 2 mM with growth factors and allowed to grow on plate for 24 hrs. After 24 hrs., media was removed and then test compounds of interest were added (100 μL, 2 times concentrated stock) to 96-well plates (end DM80 concentration not exceeding 0.5%) and incubated for 24 hours. Then L-buthionine-sulfoximine (BSO, from Acros Organics, Cat. No. 235520010) was added (100 μL, 2 times concentrated stock) at end concentrations ranging from 1 to 10 mM. Both test compounds and BSO were dissolved in MEM199/MEM EBS medium 10% FBS, insulin 10 μg/mL, L-glutamine 2 mM with growth factors. Cell viability was monitored and either after 24- or 48-hours cell viability was assayed by MTT (Thiazolyl blue tetrazolium bromide) assay. For the MTT assay, media was removed and 100 μL of MTT 1 mg/mL was added, incubated for 2 hours at +37° C., then medium was removed and 100 μL of isopropanol added to dissolve sediment. Absorption was measured at 570 (OD570) and 650 (QD650) nm wavelengths. Control cells (vehicle instead of BSO and compound) and vehicle control (with BSO, but vehicle instead of test compound) were treated in the same manner as ceils with BSO and compound. All cell media contained penicillin and streptomycin 100 U/mL each.
Absorption readouts were processed as follows: ValueΔ=ValueOD570−ValueOD650 and the obtained values were used to calculate cell viability as % of control cell (i.e., no BSO, no compound, just vehicle) viability.
Except as otherwise indicated in Table 1, all samples were run in at least 3 replicates for test compounds and at least 8 replicates for controls (i.e., both control (no BSO, no compound) and vehicle control (i.e., with BSO, no compound). Exact N per data points are indicated in the figures/table legends. Results for the compounds (test articles and controls) tested are listed in Table 1, below.
This is a cell-based assay measuring cytotoxicity which results from oxidative stress subsequent to depletion of endogenous glutathione defense mechanisms. The cells were primary Friedreich Ataxia (FA) patient fibroblasts which were incubated for 48 hrs. in BSO, an inhibitor of gamma glutamyl synthetase, an enzyme required for glutathione production. […]

Structure (SMILES)	protection against RSL-3 toxicity (in words) [1]	EC50 ([1]; Homo sapiens, Fibroblast, GM03665 cells, RSL-3 2 μM, 24 hours, MTT) [µM]	Complex I by-pass activity in Rotenone Oxygraph Assay (in words) [2]	Rotenone Oxygraph Assay % Increase ([2]; intact HepG2 cells, rotenone 1 μM, compound 10 μM, increase in respiration rate)	Complex I by-pass activity in Rotenone ATP Assay (in words) [3]	ATP Rotenone Assay EC50 ([3]; HepG2, 50 micromolar rotenone, 60 minutes, ATP bioluminescence)	protection against BSO induced cell death (in words) ([4]; BSO Assay, text statement)	EC50 ([4]; Homo sapiens, Fibroblast, FA patient fibroblasts pretreated with compound, BSO 10 mM, MTT after 48 hrs) [µM]	activation at 10 µM ([2]; Homo sapiens, intact HepG2 cells, rotenone 1 μM, compound 10 μM, increase in respiration rate) [%]
CC(C)=CCC/C(C)=C/CC/C(C)=C/CC[C@@](C)(O)CCC1=C(C)C(=O)C(C)=C(C)C1=O [Vatiquinone, reference compound]	active	0.056	inactive	Inactive	inactive	Inactive	–	–	–
COC1=C(OC)C(=O)C(CCCCCCCCCCO)=C(C)C1=O [Idebenone, reference compound]	–	–	active	–	active	–	not really very protective at all; also recorded: only very weakly active	> 1	70.2
